Data on seven molecules can be found in PubChem BioAssay (NCI).

Assay in all cases: NCI tumour cell line growth inhibition, 48 h
The test system of assay [1] is SF-268 CNS.
In assay [2] the test system is SNB-19 CNS.
Assay [3] relates to COLO 205 colon.
Assay [4] has as its system EKVX NSCLC.
Assay [5] concerns U251 CNS.
The test system of assay [6] is ACHN renal.
Assay [7] has as its system HOP-92 NSCLC.
The subject of assay [8] is HCT-15 colon.
In assay [9] the test system is OVCAR-3 ovarian.
Assay [10] deals with SK-OV-3 ovarian.
The subject of assay [11] is LOX IMVI melanoma.
The subject of assay [12] is A549 NSCLC.
Assay [13] concerns CAKI-1 renal.
Assay [14] relates to OVCAR-8 ovarian.
The test system of assay [15] is HCT-116 colon.

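Values below derive from 48-hour exposures of cells grown in 96-well plates, with endpoints linearly interpolated between the two concentrations bracketing the appropriate inhibition level. TGI is the concentration that stops growth completely.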 Where a SMILES comes first, the peptide text is derived from it. [ ]: non-standard residue; d: D form. β3hI = CC[CH](C)[CH](N)CC(=O)O

For `Cc1c2c(n(Cc3ccccn3)c1C)NN=C(C#N)S2(=O)=O`, the TGI in assay [1], in [2], in assay [3], in assay [4], in assay [5] and in [6] was over 100 µM each time. For the same molecule, the TGI in [7], in assay [8], in assay [9], in assay [10], in assay [11] and in assay [12] was over 100 µM throughout. Besides, the TGI in assay [13], in assay [14] and in assay [15] was over 100 µM in each case.

Regarding `Oc1c(C2=N[C@H]3CCCC[C@@H]3N2)ccc2ccccc12`, the TGI in assay [1] is over 100 µM; in assay [2], over 96.4 µM; in assay [3], over 100 µM; in assay [4], over 100 µM; in assay [5], over 100 µM; in assay [6], over 100 µM. Also, the TGI in [7] was over 100 µM; in assay [8], over 100 µM; in assay [9] it was over 100 µM; in assay [10], over 100 µM; in [11], over 100 µM; in [12], over 21.8 µM. Besides, the TGI in assay [13], in assay [14] and in [15] was over 100 µM in each case.

Take `COc1cccc(/C=C2\CCCCCC2=O)c1`: the TGI in assay [1], in [2], in [3], in assay [4], in [5] and in assay [6] was over 100 µM each time. Also, the TGI in [7], in assay [8], in assay [9], in assay [10], in [11] and in assay [12] was over 100 µM throughout. Besides, the TGI in assay [13] and in assay [15] was over 100 µM throughout.

On to `CCC(C)C(CC(=O)N1CCCC1C(=O)NC(C(=O)NC(C(=O)NCC(=O)NC(CC(N)=O)C(=O)NC(C(=O)NC(C(=O)NC(CCCCN)C(N)=O)C(C)CC)C(C)CC)C(C)C)C(C)CC)NC(=O)C(N)C(C)CC` (stereo not drawn) (H-I[β3hI]PIVGNIIK-NH2; configuration not given here), for which the TGI in [1], in assay [2], in [3], in assay [4], in [5] and in [6] was over 50 µM throughout. In addition, the TGI in assay [7], in assay [8], in assay [9], in assay [10], in assay [11] and in [12] was over 50 µM throughout. The TGI in assay [13], in [14] and in [15] was over 50 µM in each case.

As for `COC(=O)[C@]1(C)CCC[C@@]2(C)C1CCC1=CC3(C(C)C)CCC12OO3` (stereo partly specified), the TGI in assay [1], in [2], in [3], in assay [4], in assay [5] and in [6] was over 100 µM throughout. Also, the TGI in assay [8], in assay [9], in assay [10], in assay [11], in assay [12] and in assay [13] was over 100 µM each time. Also, the TGI in assay [14] and in assay [15] was over 100 µM in each case.

On to `CCOC(=O)c1[nH]c2ccccc2c1C(=O)C[C@H](NC(=O)C(F)(F)F)C(=O)OC`, for which the TGI in [1], in assay [2], in assay [3], in assay [4], in [5] and in assay [6] was over 100 µM throughout. The TGI in assay [7], in assay [8], in assay [9], in assay [11], in [12] and in assay [13] was over 100 µM each time. Further, the TGI in assay [14] and in assay [15] was over 100 µM throughout.

Regarding `CC(C)OP(=O)(OC(C)C)C(=Nc1ccccc1)NNc1ccc([N+](=O)[O-])cc1`, the TGI is over 100 µM in [1]; over 100 µM in assay [2]; 51.5 µM in assay [3]; over 100 µM in assay [4]; 52.5 µM in assay [5]; 92.5 µM in [6]. In addition, the TGI in assay [7] was 40.2 µM; in [8], over 100 µM; in [9] it was over 100 µM; in [11], over 100 µM; in assay [12], 88.5 µM; in [13], over 100 µM. Moreover, the TGI in assay [14] was over 100 µM; in assay [15] it was 31.2 µM.
